Measurements: US12331048B2, “Pyrido-[3,4-d]pyridazine amine derivatives useful as NLRP3 inhibitors” (Ventus Therapeutics U.S., Inc., priority 2022, dated 2025)
Values after ≈ are worked out from the molar mass of the structure shown. Read-outs that look alike come from different tables or passages of the source.

Legend:
[1] = molecular target: T1, NLRP3 (Homo sapiens, UniProt Q96P20); assay: Human whole blood (hWB) NLRP3 assay; type: cell-based; conditions: LPS priming 1 μg/ml, ATP activation, read-out: hWB IC50 (raw activity data)
T1 construct: endogenous in cells
T1 sequence (Q96P20 whole entry): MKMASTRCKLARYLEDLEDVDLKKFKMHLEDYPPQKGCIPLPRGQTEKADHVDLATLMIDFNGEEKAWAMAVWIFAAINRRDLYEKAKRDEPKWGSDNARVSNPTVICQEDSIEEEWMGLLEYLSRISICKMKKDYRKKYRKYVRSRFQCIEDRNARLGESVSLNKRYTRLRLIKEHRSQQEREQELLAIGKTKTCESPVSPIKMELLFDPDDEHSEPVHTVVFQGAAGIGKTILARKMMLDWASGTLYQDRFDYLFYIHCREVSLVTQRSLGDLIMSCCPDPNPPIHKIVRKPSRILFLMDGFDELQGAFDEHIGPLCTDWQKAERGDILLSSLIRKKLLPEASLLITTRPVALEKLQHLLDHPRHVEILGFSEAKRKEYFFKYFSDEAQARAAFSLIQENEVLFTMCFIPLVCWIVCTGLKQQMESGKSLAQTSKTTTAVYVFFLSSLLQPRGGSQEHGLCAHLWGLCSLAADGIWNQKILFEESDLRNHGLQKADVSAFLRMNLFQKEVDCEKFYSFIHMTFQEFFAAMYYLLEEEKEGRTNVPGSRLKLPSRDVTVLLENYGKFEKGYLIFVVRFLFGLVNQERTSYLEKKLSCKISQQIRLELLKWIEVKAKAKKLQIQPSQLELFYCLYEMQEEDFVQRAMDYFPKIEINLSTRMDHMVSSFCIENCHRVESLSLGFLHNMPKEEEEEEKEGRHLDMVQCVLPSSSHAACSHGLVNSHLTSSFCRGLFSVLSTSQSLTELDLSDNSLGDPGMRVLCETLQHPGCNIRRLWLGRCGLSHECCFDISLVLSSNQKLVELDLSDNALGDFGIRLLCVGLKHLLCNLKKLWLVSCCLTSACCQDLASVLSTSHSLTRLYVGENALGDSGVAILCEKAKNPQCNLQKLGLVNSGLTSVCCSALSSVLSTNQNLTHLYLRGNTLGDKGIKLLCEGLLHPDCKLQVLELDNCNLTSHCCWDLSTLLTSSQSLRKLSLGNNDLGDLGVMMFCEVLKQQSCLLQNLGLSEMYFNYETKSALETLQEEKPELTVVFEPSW
Protocol: Heparin lithium coated tubes were used to collect blood from volunteers. Blood samples were distributed on 96 well plates using 90 μl per well. Priming was performed by adding 5 μl of LPS (O26:B6; Sigma L-2654) at a final concentration of 1 μg/ml for 4.5 hours in a humidified incubator with 37° C., 5% CO2. Thirty minutes prior to NLRP3 activation, 5 μl of a 20× compound solution or vehicle (2% DMSO) was added to each well and plates were incubated on a shaker (450 rpm) in a humidified incubator with 37° C., 5% CO2. Activation was then performed by adding 3.3 μl of a 31×ATP solution per well. At the end of the 30 minutes stimulation, the plates were centrifuged (800 g, 10 min. room temperature) and the plasma from each well was frozen at −80° C. […] levels in the supernatant were analyzed using a mesoscale discovery assay (MSD K151TUK) according to the manufacturers' instructions. Human whole blood was drawn from healthy volunteers after obtaining written informed consent.
Table D assigns each compound a code for potency in the human whole blood (hWB) NLRP3 Assay: A or B. According to the code. […] The corresponding raw activity data is also included.

[2] = Brain levels (kp and kpu,u) after oral administration; type: in vivo, CDI mice; conditions: mice, 20 mpk PO; for Kp at 24 h / Kpu,u (unbound brain-to-plasma ratio): CDI, mouse, brain / plasma, po, 20 mg/kg; for Kpu,u (unbound brain-to-plasma ratio) / kpu,u (code): kp corrected with mouse plasma protein binding and mouse brain homogenate binding
Protocol: The in vivo total brain to plasma ratio was assessed in CDI mice after oral administration of the compound. Blood was collected at several timepoints up to 24 h, and transferred into plastic micro centrifuge tubes with EDTA-K2 as anticoagulant. Blood samples were centrifuged at 4000 g for 5 minutes at 4° C. to obtain plasma, then immediately frozen and stored at −75±15° C. prior to analysis. Animals were terminally anaesthetized with a rising concentration of CO2 gas at about 1 minute. At selected timepoints, whole brains were removed from the skull, rinsed in cold PBS to remove blood, dried with clean gauze, then frozen in liquid nitrogen and kept at −75±15° C. before analysis. At the time of analysis, brain samples were homogenized with PBS by tissue weight (g) to PBS volume (mL) ratio 1:3. Plasma and brain drug levels were quantified by LC/MS/MS on a AB Sciex Triple Quad 5500+ instrument, after separation on a HALO 160A ES-C18, 2.7 μm 2.1-50 mm column. Quantitation was performed using a calibration curve prepared in blank plasma or blank brain homogenate. The software WinNonlin (Phoenix™) was used for pharmacokinetic analysis from the concentrations versus time data, including the AUCinf and AUClast. The Kp ratio (total brain concentration over total plasma concentration) was calculated as (AUCtot,br)/(AUCtot,pl).
The unbound brain exposure was assessed as Kpuu, which is the free brain/free plasma concentration ratio (Cu,br/Cu,pl). The Cu,br/Cu,pl ratios were obtained from in vivo total brain to plasma ratios (Ctot,br/Ctot,pl) by using in vitro determined Fu,br and Fu,pl.
Plasma protein binding and brain homogenate protein binding were measured by equilibrium dialysis in a HTDialysis plate. The dialysis membranes were soaked in ultrapure water for 60 minutes to separate strips, then in 20% ethanol for 20 minutes, finally in dialysis buffer for 20 minutes. The dialysis set up was assembled according to the manufacturer's instruction. Each cell received 150 μL of plasma or brain homogenate spiked with 1 mM of compound, and dialyzed against an equal volume of dialysis buffer (PBS). The dialysis plate was sealed and incubated in an incubator at 37° C. with 5% CO2 at 100 rpm for 6 hours. At the end of incubation, compound concentration was measured in both chambers by LC-MS/MS on a Triple Quad™ 5500 from AB Inc after separation on a XSelect Hss T3 2.5μ (2.1×30 mm) column. Free fraction (Fu) was calculated as (Peak Area Ratio buffer chamber/Peak Area Ratio plasma chamber).
Kpuu was calculated as (AUCtot,br×Fu,br)/(AUCtot,pl×Fu,pl).
The below table also assigns each compound a code for kp and kpu,u values: A or B. According to the code. A represents a value of >0.3 and B represents a value of ≤0.3. […] The kpu,u was then calculated upon correcting this kp value with mouse plasma protein binding and mouse brain homogenates binding. A Kpu,u value >0.3 is brain penetrant, and Kpu,u value less than or equal to 0.3 is not brain penetrant. N.D.=not determined. The corresponding raw kp and kpu,u data is also included.

[3] = Solubility in phosphate buffered solution (PBS, pH 7.4); type: physicochemical; conditions: for solubility at 2 h: phosphate buffered solution (PBS), aqueous buffer, kinetic from dmso stock; for increase in solubility (PBS, pH 7.4) compared to Comparative Example 3: relative to Comparative Example 3 (6.7 uM)
Protocol: In additional embodiments, the solubility of compounds of the instant disclosure may be determined following known procedures, such as described in Alsenz and Kansy, Advanced Drug Delivery Reviews (2007) 59:546-567, and Wang et al. J Mass Spectrom. (2000) 35:71-76. For example, the kinetic solubility in physiologically relevant media, such as phosphate buffered solution (PBS, pH 7.4) or simulated gastric fluid (SGF), may be measured using serial dilution and two hour incubation period, followed by filtration, and reported in μM by LC-MS/MS. Thermodynamic solubility in physiologically relevant media may be measured by LC-MS/MS, after a twenty-four hour incubation, followed by filtration, and reported in mg/mL. Optimized solubility may be beneficial for manufacturing and further processing of the compound. Furthermore, optimized solubility allows for a more efficient in vitro analysis of the compound, including data collection around the compound's safety, drug-drug interactions, potency, selectivity, metabolism, and permeability. […]

[4] = whole brain AUC over 24 h divided by plasma AUC, read-out: kp (code)
[5] = whole brain AUC over 24 h divided by plasma AUC, read-out: kp (raw)

IC50 [1] [nM]	Kp at 24 h [2, 4]	Kp at 24 h [2, 5]	Kpu,u (unbound brain-to-plasma ratio) [2]	kp (code) ([2]; whole brain AUC over 24 h divided by plasma AUC)	kpu,u (code) [2]	solubility at 2 h [3] [µM]	increase in solubility (PBS, pH 7.4) compared to Comparative Example 3 [3] [fold]	SMILES
260	> 0.3	0.4	0.63	A (A represents a value of >0.3)	A (A represents a value of >0.3)	45 (≈ 18.1 µg/mL)	7	CC1(C)C[C@H](Nc2nnc(-c3ccc(OC(F)F)cc3O)c3ccncc23)CO1 (single isomer, unassigned) [Compound 9*]
61	≤ 0.3	0.24	0.52	–	A (A represents a value of >0.3)	45 (≈ 18.1 µg/mL)	7	CC1(C)C[C@@H](Nc2nnc(-c3ccc(OC(F)F)cc3O)c3ccncc23)CO1 (single isomer, unassigned) [Compound 9B*]
220	> 0.3	0.44	0.94	–	A (A represents a value of >0.3)	180 (≈ 63.1 µg/mL)	27	Cc1ccc(-c2nnc(N[C@H]3COC(C)(C)C3)c3cnccc23)c(O)c1 [Compound 5, (R)-2-(4-((5,5-dimethyltetrahydrofuran-3-yl)amino)pyrido[3,4-d]pyridazin-1-yl)-5-methylphenol]
460	> 0.3	0.3	0.76	–	A (A represents a value of >0.3)	250 (≈ 92.1 µg/mL)	37	Cc1cc(O)c(-c2nnc(N[C@H]3COC(C)(C)C3)c3cnccc23)c(F)c1 (single isomer, unassigned) [Compound 21*]
